Reference: PMC11292009, “Mapping protein binding sites by photoreactive fragment pharmacophores” (Communications Chemistry, 2024)

How the values were obtained:
Assay type in all cases: binding
[1] = tested on: carbonic anhydrase II (CA); assay: Intact protein MS photoaffinity labeling screen, carbonic anhydrase; conditions: intact protein MS after 10 min irradiation
Procedure, shortened: (§1)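 Fragments are tested singly per well. Protein and fragment incubate 15 min for non-covalent association, then the plate goes directly to intact protein mass spectrometry, where mass shifts matching fragment addition give the labeling %.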

[2] = tested on: lysozyme (Lyo); assay: Intact protein MS photoaffinity labeling screen, lysozyme; conditions: intact protein MS after 10 min irradiation
Procedure, shortened: as §1

[3] = tested on: T1, STAT5B-NTD; assay: Intact MS labeling screen, STAT5B-NTD conjugated with photocatalyst Ir-G2-PEG3-COOH (450 nm); conditions: 450 nm 10 min;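 note: 0.14 µL of 100 mM DMSO fragment stock added to the conjugate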
T1 construct: His-SUMO (N, cleaved yes); made in house; host or cells: E. coli BL21 RILP
Procedure, shortened: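 Ir-G2-PEG3-COOH photocatalyst (10 eq) activated 30 min with EDC/NHS/BOP, then conjugated to STAT5B-NTD (7 µM) overnight at RT or 1 h at 37 °C in dark. PhP added, 1 h dark, then 450 nm irradiation 10 min at 4 °C; labeling read by intact LC-MS, positive ion mode, m/z 100–2000.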

[4] = tested on: T1, STAT5B-NTD; assay: Intact MS photoaffinity labeling screen, STAT5B-NTD (365 nm, UHPLC-MS); conditions: for MS labeling percentage, STAT5B: STAT5B-NTD, 365 nm 10 min, no photocatalyst;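 for MS labeling percentage, STAT5B: 0.17 µL of 100 mM DMSO fragment stock added to the protein sample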
Procedure, shortened: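 Intact-protein labeling detected by UHPLC-MS in positive ion mode over m/z 100–2000. Samples were first photo-crosslinked at 365 nm for 10 min at 4 °C. Before irradiation, 7 µM STAT5B in PBS pH 7.4 was pre-incubated with probe for 1 h in the dark at room temperature.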

[5] = tested on: myoglobin (Myo); assay: Intact protein MS photoaffinity labeling screen, myoglobin; conditions: intact protein MS after 10 min irradiation
Procedure, shortened: as §1

[6] = tested on: T2, KRas^G12D; assay: Intact MS photoaffinity labeling screen, KRas G12D (302 nm, LCMS-TOF); conditions: for MS labeling percentage, KRas: KRas G12D, 302 nm 10 min
T2 construct: purchased GSK/GenScript
Procedure, shortened: (§2)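 Labeling detected as mass additions in deconvoluted intact-protein LCMS-TOF spectra. Protein at 1 μM in PBS was first mixed with one fragment per well on ice for 15 min, followed by 10 min UV exposure at 302 nm.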

[7] = tested on: T3, BRD4-BD1; assay: Intact MS photoaffinity labeling screen, BRD4-BD1 (302 nm, LCMS-TOF); conditions: for MS labeling percentage, BRD4: BRD4-BD1, 302 nm 10 min
T3 construct: screened the PhP library against the first bromodomain of BRD4 (BRD4-BD1); purchased GSK/GenScript
Procedure, shortened: as §2

[8] = sheet PhP, experimental hit status flag given as 0 or 1
[9] = PhP library sheet "PhP", binary flag printed as 0 or 1, key not given

## COc1ccc(OC)c(C(C)NC(=O)CCC2(C)N=N2)c1 (stereo not shown) [PhP062, COc1ccc(OC)c(c1)C(C)NC(=O)CCC2(C)N=N2]
[1]
  MS labeling percentage, CA: 2.3%
[2]
  MS labeling percentage, Lyo: 1%
[3]
  MS labeling percentage, STAT5B+photocat: 1.9%
[4]
  MS labeling percentage, STAT5B: 2%
[4]; [8]
  STAT5B-NTD (experimental hit status): 0
[5]
  MS labeling percentage, Myo: 1.1%
[6]
  MS labeling percentage, KRas: 63.2%
[6]; [8]
  KRAS-G12D (experimental hit status): 0
[7]
  MS labeling percentage, BRD4: 7.9%
[7]; [8]
  BRD4-BD1 (experimental hit status): 0

## Cn1cnnc1CCNC(=O)CCC1(C)N=N1 [PhP063, Cn1cnnc1CCNC(=O)CCC2(C)N=N2]
[1]
  MS labeling percentage, CA: 0.3%
[2]
  MS labeling percentage, Lyo: 0%
[3]
  MS labeling percentage, STAT5B+photocat: 0.4%
[4]
  MS labeling percentage, STAT5B: 0%
[4]; [8]
  STAT5B-NTD (experimental hit status): 0
[5]
  MS labeling percentage, Myo: 0.3%
[6]
  MS labeling percentage, KRas: 0.8%
[6]; [8]
  KRAS-G12D (experimental hit status): 0
[7]
  MS labeling percentage, BRD4: 49.7%
[7]; [8]
  BRD4-BD1 (experimental hit status): 0

## CC1(CCC(=O)NC(CO)Cc2c[nH]c3ccccc23)N=N1 (stereo not shown) [PhP064, N1=NC1(C)CCC(=O)NC(CO)Cc(c[nH]2)c(c23)cccc3]
[1]
  MS labeling percentage, CA: 0.5%
[2]
  MS labeling percentage, Lyo: 0.7%
[3]
  MS labeling percentage, STAT5B+photocat: 1.9%
[4]
  MS labeling percentage, STAT5B: 2.9%
[4]; [8]
  STAT5B-NTD (experimental hit status): 0
[5]
  MS labeling percentage, Myo: 0.3%
[6]
  MS labeling percentage, KRas: 3.1%
[6]; [8]
  KRAS-G12D (experimental hit status): 0
[7]
  MS labeling percentage, BRD4: 1.1%
[7]; [8]
  BRD4-BD1 (experimental hit status): 0

## CC1(CCC(=O)NCCCc2nc[nH]n2)N=N1 [PhP066, N1=NC1(C)CCC(=O)NCCCc2nc[nH]n2]
[1]
  MS labeling percentage, CA: 0.3%
[2]
  MS labeling percentage, Lyo: 0%
[3]
  MS labeling percentage, STAT5B+photocat: 0%
[4]
  MS labeling percentage, STAT5B: 0%
[4]; [8]
  STAT5B-NTD (experimental hit status): 0
[5]
  MS labeling percentage, Myo: 0.3%
[6]
  MS labeling percentage, KRas: 0.2%
[6]; [8]
  KRAS-G12D (experimental hit status): 0
[7]
  MS labeling percentage, BRD4: 0.3%
[7]; [8]
  BRD4-BD1 (experimental hit status): 0

## Cc1cc2ncn(CC(O)CNC(=O)CCC3(C)N=N3)c2cc1C (stereo not shown) [PhP067, Cc(c1)c(C)cc(c12)n(cn2)CC(O)CNC(=O)CCC3(C)N=N3]
[1]
  MS labeling percentage, CA: 0.2%
[2]
  MS labeling percentage, Lyo: 0%
[3]
  MS labeling percentage, STAT5B+photocat: 0.3%
[4]
  MS labeling percentage, STAT5B: 2%
[4]; [8]
  STAT5B-NTD (experimental hit status): 0
[5]
  MS labeling percentage, Myo: 0.5%
[6]
  MS labeling percentage, KRas: 0.6%
[6]; [8]
  KRAS-G12D (experimental hit status): 0
[7]
  MS labeling percentage, BRD4: 0.8%
[7]; [8]
  BRD4-BD1 (experimental hit status): 0

## COc1nc(C)cc(C)c1CNC(=O)CCC1(C)N=N1 [PhP068, COc1nc(C)cc(C)c1CNC(=O)CCC2(C)N=N2]
[1]
  MS labeling percentage, CA: 0.3%
[2]
  MS labeling percentage, Lyo: 0%
[3]
  MS labeling percentage, STAT5B+photocat: 4.4%
[4]
  MS labeling percentage, STAT5B: 1%
[4]; [8]
  STAT5B-NTD (experimental hit status): 0
[5]
  MS labeling percentage, Myo: 0.4%
[6]
  MS labeling percentage, KRas: 0%
[6]; [8]
  KRAS-G12D (experimental hit status): 0
[7]
  MS labeling percentage, BRD4: 1%
[7]; [8]
  BRD4-BD1 (experimental hit status): 0

## CC1(CCC(=O)NCCCc2nc3ccccc3[nH]2)N=N1 [PhP069, N1=NC1(C)CCC(=O)NCCCc(n2)[nH]c(c23)cccc3]
[1]
  MS labeling percentage, CA: 0.2%
[2]
  MS labeling percentage, Lyo: 0%
[3]
  MS labeling percentage, STAT5B+photocat: 0.8%
[4]
  MS labeling percentage, STAT5B: 1%
[4]; [8]
  STAT5B-NTD (experimental hit status): 0
[5]
  MS labeling percentage, Myo: 0.2%
[6]
  MS labeling percentage, KRas: 0.5%
[6]; [8]
  KRAS-G12D (experimental hit status): 0
[7]
  MS labeling percentage, BRD4: 1.5%
[7]; [8]
  BRD4-BD1 (experimental hit status): 0

## C[C@@H](NC(=O)CCC1(C)N=N1)[C@@H](O)c1cccc(O)c1 [PhP070, Oc(c1)cccc1[C@H](O)[C@@H](C)NC(=O)CCC2(C)N=N2]
[1]
  MS labeling percentage, CA: 0%
[2]
  MS labeling percentage, Lyo: 1%
[3]
  MS labeling percentage, STAT5B+photocat: 4.2%
[4]
  MS labeling percentage, STAT5B: 1%
[4]; [8]
  STAT5B-NTD (experimental hit status): 0
[5]
  MS labeling percentage, Myo: 0.1%
[6]
  MS labeling percentage, KRas: 0%
[6]; [8]
  KRAS-G12D (experimental hit status): 0
[7]
  MS labeling percentage, BRD4: 0.3%
[7]; [8]
  BRD4-BD1 (experimental hit status): 0

## Cc1nc2ccccc2n1CCNC(=O)CCC1(C)N=N1 [PhP073, c1cccc(c12)n(c(n2)C)CCNC(=O)CCC3(C)N=N3]
[1]
  MS labeling percentage, CA: 0%
[2]
  MS labeling percentage, Lyo: 0%
[3]
  MS labeling percentage, STAT5B+photocat: 1.6%
[4]
  MS labeling percentage, STAT5B: 1%
[4]; [8]
  STAT5B-NTD (experimental hit status): 0
[5]
  MS labeling percentage, Myo: 0.2%
[6]
  MS labeling percentage, KRas: 0.1%
[6]; [8]
  KRAS-G12D (experimental hit status): 0
[7]
  MS labeling percentage, BRD4: 0.3%
[7]; [8]
  BRD4-BD1 (experimental hit status): 0

## COc1cc(C)nc(NC(=O)CCC2(C)N=N2)n1 [PhP074, COc1cc(C)nc(n1)NC(=O)CCC2(C)N=N2]
[1]
  MS labeling percentage, CA: 0.7%
[2]
  MS labeling percentage, Lyo: 0%
[3]
  MS labeling percentage, STAT5B+photocat: 1.8%
[4]
  MS labeling percentage, STAT5B: 1%
[4]; [8]
  STAT5B-NTD (experimental hit status): 0
[5]
  MS labeling percentage, Myo: 0.4%
[6]
  MS labeling percentage, KRas: 0.4%
[6]; [8]
  KRAS-G12D (experimental hit status): 0
[7]
  MS labeling percentage, BRD4: 0.4%
[7]; [8]
  BRD4-BD1 (experimental hit status): 0

## CC1(CCC(=O)Nc2ccc3c(c2)NC(=O)CC3)N=N1 [PhP075, N1=NC1(C)CCC(=O)Nc(cc2)cc(c23)NC(=O)CC3]
[1]
  MS labeling percentage, CA: 0.2%
[2]
  MS labeling percentage, Lyo: 0%
[3]
  MS labeling percentage, STAT5B+photocat: 0.5%
[4]
  MS labeling percentage, STAT5B: 2%
[4]; [8]
  STAT5B-NTD (experimental hit status): 0
[5]
  MS labeling percentage, Myo: 0.1%
[6]
  MS labeling percentage, KRas: 0.2%
[6]; [8]
  KRAS-G12D (experimental hit status): 0
[7]
  MS labeling percentage, BRD4: 1.3%
[7]; [8]
  BRD4-BD1 (experimental hit status): 0

## CCc1cc(NC(=O)CCC2(C)N=N2)nc(C)n1 [PhP076, CCc1cc(nc(n1)C)NC(=O)CCC2(C)N=N2]
[1]
  MS labeling percentage, CA: 0.1%
[2]
  MS labeling percentage, Lyo: 0%
[3]
  MS labeling percentage, STAT5B+photocat: 3.2%
[4]
  MS labeling percentage, STAT5B: 2%
[4]; [8]
  STAT5B-NTD (experimental hit status): 0
[5]
  MS labeling percentage, Myo: 0.2%
[6]
  MS labeling percentage, KRas: 0.2%
[6]; [8]
  KRAS-G12D (experimental hit status): 0
[7]
  MS labeling percentage, BRD4: 0.9%
[7]; [8]
  BRD4-BD1 (experimental hit status): 0

## CC1CN(Cc2ccccc2NC(=O)CCC2(C)N=N2)CC(C)O1 (stereo not shown) [PhP078, CC1CN(CC(O1)C)Cc2ccccc2NC(=O)CCC3(C)N=N3]
[1]
  MS labeling percentage, CA: 0.4%
[2]
  MS labeling percentage, Lyo: 0%
[3]
  MS labeling percentage, STAT5B+photocat: 0.7%
[4]; [9]
  STAT5B-NTD (experimental hit status): 0
[4]
  MS labeling percentage, STAT5B: 0%
[5]
  MS labeling percentage, Myo: 0.2%
[6]
  MS labeling percentage, KRas: 0%
[6]; [9]
  KRAS-G12D (experimental hit status): 0
[7]
  MS labeling percentage, BRD4: 0.4%
[7]; [9]
  BRD4-BD1 (experimental hit status): 0

## CC1(CCC(=O)N[C@@H](Cc2cccc(F)c2)CN2C(=O)c3ccccc3C2=O)N=N1 [PhP079, Fc(c1)cccc1C[C@H](NC(=O)CCC2(C)N=N2)CN(C3=O)C(=O)c(c34)cccc4]
[1]
  MS labeling percentage, CA: 0.5%
[2]
  MS labeling percentage, Lyo: 0.3%
[3]
  MS labeling percentage, STAT5B+photocat: 1.2%
[4]; [9]
  STAT5B-NTD (experimental hit status): 0
[4]
  MS labeling percentage, STAT5B: 0%
[5]
  MS labeling percentage, Myo: 0.4%
[6]
  MS labeling percentage, KRas: 0.5%
[6]; [9]
  KRAS-G12D (experimental hit status): 0
[7]; [9]
  BRD4-BD1 (experimental hit status): 0
